Experiments:
[1] = target: Hepatocyte growth factor receptor (Homo sapiens, UniProt P08581); test: Inhibition of N-terminal His/SUMO tagged wild type human c-Met (1038 to 1346 residues) transfected in Escherichia coli using Tyr06 peptide as substrate incubated for 1 hr in presence of ATP by FRET-based Z'-Lyte assay
Hs746T = test: cells; conditions: Homo sapiens, 120 h

Chain of Hepatocyte growth factor receptor (P08581 whole entry, the tested form may be a part): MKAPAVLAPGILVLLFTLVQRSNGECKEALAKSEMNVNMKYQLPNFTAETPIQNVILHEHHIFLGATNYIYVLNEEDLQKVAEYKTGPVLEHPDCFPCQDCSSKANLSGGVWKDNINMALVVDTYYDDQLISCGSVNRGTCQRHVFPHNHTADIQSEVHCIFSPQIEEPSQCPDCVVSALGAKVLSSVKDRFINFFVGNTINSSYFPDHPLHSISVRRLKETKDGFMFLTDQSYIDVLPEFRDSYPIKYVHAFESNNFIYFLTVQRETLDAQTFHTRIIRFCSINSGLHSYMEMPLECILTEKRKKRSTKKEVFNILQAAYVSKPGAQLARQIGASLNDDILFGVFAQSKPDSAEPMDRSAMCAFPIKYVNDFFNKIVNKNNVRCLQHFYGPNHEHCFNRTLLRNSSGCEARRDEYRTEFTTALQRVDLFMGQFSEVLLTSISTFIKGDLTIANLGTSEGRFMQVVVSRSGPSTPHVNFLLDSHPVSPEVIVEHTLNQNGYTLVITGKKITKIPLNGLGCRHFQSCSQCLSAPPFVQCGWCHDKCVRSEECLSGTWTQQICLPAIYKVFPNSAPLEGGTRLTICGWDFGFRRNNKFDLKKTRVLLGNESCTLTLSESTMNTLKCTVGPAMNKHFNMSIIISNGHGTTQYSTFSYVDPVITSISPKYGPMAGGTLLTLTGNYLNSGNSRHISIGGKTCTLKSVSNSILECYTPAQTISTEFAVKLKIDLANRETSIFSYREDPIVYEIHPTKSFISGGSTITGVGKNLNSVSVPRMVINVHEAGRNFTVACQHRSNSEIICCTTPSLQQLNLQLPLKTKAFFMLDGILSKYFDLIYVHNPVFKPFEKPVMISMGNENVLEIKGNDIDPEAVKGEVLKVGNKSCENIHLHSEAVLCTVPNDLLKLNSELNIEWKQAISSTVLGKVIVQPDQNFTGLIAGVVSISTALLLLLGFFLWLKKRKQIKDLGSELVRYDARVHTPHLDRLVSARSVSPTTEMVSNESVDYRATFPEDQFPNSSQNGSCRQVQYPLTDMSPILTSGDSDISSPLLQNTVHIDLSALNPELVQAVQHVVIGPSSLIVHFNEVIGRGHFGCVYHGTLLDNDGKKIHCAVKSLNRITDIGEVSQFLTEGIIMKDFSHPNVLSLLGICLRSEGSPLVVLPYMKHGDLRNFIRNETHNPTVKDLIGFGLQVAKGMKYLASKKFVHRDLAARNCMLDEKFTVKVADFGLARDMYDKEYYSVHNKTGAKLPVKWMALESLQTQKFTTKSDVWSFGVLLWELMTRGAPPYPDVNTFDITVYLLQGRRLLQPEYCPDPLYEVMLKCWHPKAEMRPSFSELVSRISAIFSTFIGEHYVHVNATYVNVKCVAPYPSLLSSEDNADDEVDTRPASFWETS

`CNC(=O)c1ccc(-c2ccc(=O)n(CCc3ccc4ncc(-c5cn[nH]c5)cc4c3)n2)cc1C(F)(F)F` was tested. Which IC50 [1] did it give?
Its IC50 is 6.7 nM.

And the IC50 (Hs746T)?
The IC50 was 106 nM.

For `Cn1cc(-c2ccc(-c3ccc(=O)n(Cc4ccc5ncccc5c4)n3)cc2)cn1`, which IC50 [1] is on record?
The IC50 was > 10000 nM.

With `CNC(=O)c1ccc(-c2ccc(=O)n(CCc3ccc4ncc(-c5cnn(C)c5)cc4c3)n2)cc1` as the compound, how does the IC50 [1] read?
Its IC50 is 4 nM.

And the IC50 (Hs746T)?
Its IC50 is 137 nM.

Which IC50 [1] does the source give for `Cn1cc(-c2cnc3ccc(CCn4nc(-c5ccccc5)ccc4=O)cc3c2)cn1` here?
The IC50 was 14.9 nM.

How did the IC50 [1] turn out when `CNC(=O)c1ccc(-c2ccc(=O)n(CCc3ccc4ncc(NCCN5CCOCC5)cc4c3)n2)cc1C(F)(F)F` was run?
Its IC50 is 18.4 nM.

And the IC50 (Hs746T)?
The IC50 was 375 nM.

With `COC(=O)c1ccc(-c2ccc(=O)n(CCc3ccc4ncc(-c5cnn(C)c5)cc4c3)n2)cc1` as the compound, how does the IC50 [1] read?
Its IC50 is 7.5 nM.

What about the IC50 (Hs746T) of the same compound?
Its IC50 is 1900 nM.

Which results are given for `CNC(=O)c1ccc(-c2ccc(=O)n(CCc3ccc4ncc(N5CC6CNCC6C5)cc4c3)n2)cc1C(F)(F)F` (centres undefined)?
IC50 [1]: 11.4 nM; IC50 (Hs746T): 212 nM

For `O=c1ccc(-c2ccccc2)nn1CCc1ccc2ncccc2c1`, which IC50 [1] is on record?
Its IC50 is 2000 nM.

Which IC50 [1] does the source give for `O=c1ccc(-c2ccccc2)nn1Cc1ccc2ncccc2c1` here?
Its IC50 is > 10000 nM.

How did the IC50 [1] turn out when `Cn1cc(-c2cnc3ccc(CCn4nc(-c5ccccc5F)ccc4=O)cc3c2)cn1` was run?
Its IC50 is 25.9 nM.

And the IC50 (Hs746T)?
The IC50 was 638 nM.

For `CNC(=O)c1ccc(-c2ccc(=O)n(CCc3ccc4ncc(N5CCN(C)CC5)cc4c3)n2)cc1C(F)(F)F`, which IC50 [1] is on record?
The IC50 was 10.7 nM.

What about the IC50 (Hs746T) of the same compound?
The IC50 was 199 nM.

`CNC(=O)c1ccc(-c2ccc(=O)n(/C=C/c3ccc4ncc(-c5cnn(C)c5)cc4c3)n2)cc1C(F)(F)F` was tested. Which IC50 [1] did it give?
Its IC50 is 35.6 nM.

And the IC50 (Hs746T)?
The IC50 was 3010 nM.

`O=c1ccc(-c2ccc(N3CCOCC3)cc2)nn1CCc1ccc2ncccc2c1` was tested. Which IC50 [1] did it give?
The IC50 was 208 nM.

How did the IC50 [1] turn out when `Cn1cc(-c2cnc3ccc(CCn4nc(-c5cccc(F)c5)ccc4=O)cc3c2)cn1` was run?
Its IC50 is 10.6 nM.

What about the IC50 (Hs746T) of the same compound?
Its IC50 is 397 nM.

How did the IC50 [1] turn out when `Cn1cc(-c2cnc3ccc(CCn4nc(-c5cccc(C#N)c5)ccc4=O)cc3c2)cn1` was run?
The IC50 was 10.5 nM.

And the IC50 (Hs746T)?
Its IC50 is 130 nM.

`Cn1cc(-c2cnc3ccc(CCn4nc(-c5cccc([N+](=O)[O-])c5)ccc4=O)cc3c2)cn1` was tested. Which IC50 [1] did it give?
The IC50 was 15.1 nM.

What about the IC50 (Hs746T) of the same compound?
The IC50 was 331 nM.

How did the IC50 [1] turn out when `CNC(=O)c1ccc(-c2ccc(=O)n(CCc3ccc4ncc(-c5cnn(C)c5)cc4c3)n2)cc1C(F)(F)F` was run?
The IC50 was 4.8 nM.

And the IC50 (Hs746T)?
Its IC50 is 11.9 nM.

`CNC(=O)c1ccc(-c2ccc(=O)n(CCc3ccc4ncc(N5CCC(N6CCN(C)CC6)CC5)cc4c3)n2)cc1C(F)(F)F` was tested. Which IC50 [1] did it give?
The IC50 was 13.9 nM.

What about the IC50 (Hs746T) of the same compound?
Its IC50 is 47.8 nM.

Which IC50 [1] does the source give for `O=c1ccc(-c2ccccc2)nn1CCc1ccc2ncc(N3CCOCC3)cc2c1` here?
The IC50 was 41.6 nM.

For `CNC(=O)c1ccc(-c2ccc(=O)n(NC(=O)c3ccc4ncc(-c5cnn(C)c5)cc4c3)n2)cc1C(F)(F)F`, which IC50 [1] is on record?
Its IC50 is 2280 nM.

What about the IC50 (Hs746T) of the same compound?
The IC50 was 10000 nM.

`Cc1cccc(-c2ccc(=O)n(CCc3ccc4ncc(-c5cnn(C)c5)cc4c3)n2)c1` was tested. Which IC50 [1] did it give?
The IC50 was 8.9 nM.

What about the IC50 (Hs746T) of the same compound?
Its IC50 is 328 nM.

For `Cn1cc(-c2cnc3ccc(CCn4nc(-c5cccc(Br)c5)ccc4=O)cc3c2)cn1`, which IC50 [1] is on record?
Its IC50 is 6.8 nM.

And the IC50 (Hs746T)?
The IC50 was 436 nM.

What does the source list for `CNC(=O)c1ccc(-c2ccc(=O)n(CCc3ccc4ncc(N5CCC(N6CCCC6)CC5)cc4c3)n2)cc1C(F)(F)F`?
IC50 [1]: 14.3 nM; IC50 (Hs746T): 22.8 nM

How did the IC50 [1] turn out when `CNC(=O)c1ccc(-c2ccc(=O)n(CCOc3ccc4ncc(-c5cnn(C)c5)cc4c3)n2)cc1C(F)(F)F` was run?
Its IC50 is 78.6 nM.

What about the IC50 (Hs746T) of the same compound?
The IC50 was 447 nM.

Which results are given for `Cn1cc(-c2cnc3ccc(CCn4nc(-c5ccc(C(=O)O)cc5)ccc4=O)cc3c2)cn1`?
IC50 [1]: 10.1 nM; IC50 (Hs746T): 2500 nM

Which results are given for `COc1cccc(-c2ccc(=O)n(CCc3ccc4ncc(-c5cnn(C)c5)cc4c3)n2)c1`?
IC50 [1]: 14.7 nM; IC50 (Hs746T): 1360 nM

What does the source list for `Cn1cc(-c2cnc3ccc(CCn4nc(-c5ccc(F)c(F)c5)ccc4=O)cc3c2)cn1`?
IC50 [1]: 13.2 nM; IC50 (Hs746T): 708 nM

With `Cn1cc(-c2cnc3ccc(CCn4nc(-c5cc(F)c(F)c(F)c5)ccc4=O)cc3c2)cn1` as the compound, how does the IC50 [1] read?
The IC50 was 7.6 nM.

And the IC50 (Hs746T)?
The IC50 was 228 nM.

`O=c1ccc(-c2ccc(N3CCOCC3)cc2)nn1Cc1ccc2ncccc2c1` was tested. Which IC50 [1] did it give?
Its IC50 is > 10000 nM.

Which IC50 [1] does the source give for `Cn1cc(-c2ccc(-c3ccc(=O)n(CCc4ccc5ncccc5c4)n3)cc2)cn1` here?
The IC50 was 663 nM.

Which IC50 [1] does the source give for `O=c1ccc(-c2ccccc2)nn1Cc1ccc2ncc(N3CCOCC3)cc2c1` here?
The IC50 was 171 nM.

With `Cn1cc(-c2cnc3ccc(Cn4nc(-c5ccccc5)ccc4=O)cc3c2)cn1` as the compound, how does the IC50 [1] read?
Its IC50 is 138 nM.
